According to PMC6556873, “Rapid Covalent-Probe Discovery by Electrophile-Fragment Screening” (Journal of the American Chemical Society, 2019):
Read-outs that look alike come from different tables or passages of the source.

Legend:
[1] = in vitro; set-up: species or system HB2, CCD841; settings: human, hek293 cells
[2] = in vitro; set-up: species or system HB2, HEK293; settings: human, ccd841 cells
[3] = molecular target: T1, OTUB2 (OTUB2A) (Homo sapiens, UniProt Q96DC9); set-up: Intact protein LC/MS covalent labelling, fragments in pools of five, 200 uM each, 4 °C; settings: 24 h, 4 °C, pool of five; 200 µM; covalent
T1 construct: full length residues 1-234, E. coli BL21(DE3)-R3, His tag removed by TEV, construct 27312 Da
T1 sequence (Q96DC9 1-234): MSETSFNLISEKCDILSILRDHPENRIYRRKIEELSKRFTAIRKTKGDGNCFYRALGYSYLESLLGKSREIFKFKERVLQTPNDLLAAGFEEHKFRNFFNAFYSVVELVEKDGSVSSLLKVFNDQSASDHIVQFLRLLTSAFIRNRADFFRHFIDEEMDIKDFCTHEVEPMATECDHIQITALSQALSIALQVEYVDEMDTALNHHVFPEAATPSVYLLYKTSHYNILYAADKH

[4] = molecular target: T2, PCAF (Homo sapiens, UniProt Q92831); set-up: Intact protein LC/MS covalent labelling, fragments in pools of five, 200 uM each, 4 °C; settings: 24 h, 4 °C, pool of five; 200 µM; covalent
T2 construct: gene KAT2B

[5] = molecular target: T3, NUDT7 (Homo sapiens, UniProt P0C024); set-up: Intact protein LC/MS covalent labelling, fragments in pools of five, 200 uM each, 4 °C; settings: 24 h, 4 °C, pool of five; 200 µM; covalent
T3 construct: residues 14-235, E. coli, pNIC28-Bsa4, N-terminal His6 tag removed by TEV, construct 26672 Da

[6] = molecular target: T4, BSA (Bos taurus, UniProt P02769); set-up: Intact protein LC/MS covalent labelling, fragments in pools of five, 200 uM each, 4 °C; settings: 24 h, 4 °C, pool of five; 200 µM; covalent
T4 construct: gene ALB

[7] = in vitro; set-up: species or system CCD841, HEK293; settings: human, hb2 cells, read-out: HB-2 Cells Viability (%)

T3 sequence (P0C024 14-235): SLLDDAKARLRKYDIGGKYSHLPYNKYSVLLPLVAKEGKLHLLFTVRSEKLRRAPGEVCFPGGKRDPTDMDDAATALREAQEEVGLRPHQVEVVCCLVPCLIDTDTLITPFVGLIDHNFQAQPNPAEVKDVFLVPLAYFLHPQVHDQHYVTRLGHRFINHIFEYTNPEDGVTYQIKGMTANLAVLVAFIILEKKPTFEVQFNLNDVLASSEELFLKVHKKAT
T4 sequence (P02769 whole entry, the tested form may be a part): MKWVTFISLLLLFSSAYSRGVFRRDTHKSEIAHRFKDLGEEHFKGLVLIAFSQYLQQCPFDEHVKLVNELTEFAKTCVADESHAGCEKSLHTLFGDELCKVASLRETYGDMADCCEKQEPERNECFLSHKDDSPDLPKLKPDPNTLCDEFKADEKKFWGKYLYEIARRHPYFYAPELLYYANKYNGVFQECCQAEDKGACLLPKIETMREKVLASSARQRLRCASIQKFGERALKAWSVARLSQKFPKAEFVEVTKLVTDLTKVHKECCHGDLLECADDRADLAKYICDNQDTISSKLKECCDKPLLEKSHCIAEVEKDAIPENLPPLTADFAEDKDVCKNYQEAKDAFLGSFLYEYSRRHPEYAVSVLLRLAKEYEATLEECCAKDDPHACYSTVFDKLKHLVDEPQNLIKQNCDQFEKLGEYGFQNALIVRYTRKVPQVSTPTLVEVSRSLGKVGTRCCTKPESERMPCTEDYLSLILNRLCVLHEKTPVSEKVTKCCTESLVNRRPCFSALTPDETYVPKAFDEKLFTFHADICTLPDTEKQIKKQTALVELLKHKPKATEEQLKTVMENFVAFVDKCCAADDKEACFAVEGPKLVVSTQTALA
T2 sequence (Q92831 whole entry, the tested form may be a part): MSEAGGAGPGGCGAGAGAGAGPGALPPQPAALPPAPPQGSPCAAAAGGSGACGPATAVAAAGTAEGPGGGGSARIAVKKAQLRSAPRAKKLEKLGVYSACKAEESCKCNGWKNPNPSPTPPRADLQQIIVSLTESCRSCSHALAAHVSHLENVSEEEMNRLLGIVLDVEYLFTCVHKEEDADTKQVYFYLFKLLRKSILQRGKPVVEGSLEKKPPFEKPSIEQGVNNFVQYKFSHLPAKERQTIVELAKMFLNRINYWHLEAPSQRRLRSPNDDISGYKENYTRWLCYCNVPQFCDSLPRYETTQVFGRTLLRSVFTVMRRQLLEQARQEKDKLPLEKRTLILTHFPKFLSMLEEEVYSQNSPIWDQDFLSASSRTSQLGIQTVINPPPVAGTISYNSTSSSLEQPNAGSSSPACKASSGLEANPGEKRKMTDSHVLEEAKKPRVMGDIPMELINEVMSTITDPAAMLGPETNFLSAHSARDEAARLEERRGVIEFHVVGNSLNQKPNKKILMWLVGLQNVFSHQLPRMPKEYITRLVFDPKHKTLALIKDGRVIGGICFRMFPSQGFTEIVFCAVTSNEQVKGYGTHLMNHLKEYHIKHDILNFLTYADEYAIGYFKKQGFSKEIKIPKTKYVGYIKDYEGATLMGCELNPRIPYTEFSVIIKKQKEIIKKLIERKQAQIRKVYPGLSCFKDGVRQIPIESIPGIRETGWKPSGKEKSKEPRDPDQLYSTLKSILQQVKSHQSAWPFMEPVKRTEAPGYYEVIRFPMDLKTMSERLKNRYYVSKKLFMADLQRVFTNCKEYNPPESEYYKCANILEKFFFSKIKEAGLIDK

Compound | OTUB2 [3] | PCAF [4] | NUDT7 [5] | BSA [6] | viability at 48 h, 10 µM [1] | viability at 48 h, 10 µM [2] | viability at 48 h, 10 µM [7]
O=C(CCl)N1CCC(c2nc3ccccc3o2)CC1 [PCM-0102920] | 0 | 0 | 0 | 0 | 21.4% | 70% | 40.1%
O=C(CCl)Nc1ccc(Br)cc1F [PCM-0102926] | 0.2 | 0 | 0.17 | 0 | 32.5% | 59.9% | 50.9%
C=CC(=O)N1Cc2ccccc2OC(C)(C)C1 [PCM-0102927] | 0 | 0 | 0 | 0 | 93.4% | 111% | 104%
CC(C)c1nnc(NC(=O)CCl)s1 [PCM-0102928] | 0 | 0 | 0.04 | 0 | 81.8% | 77.9% | 85.3%
Cl.O=C(CCl)Nc1ccncc1 [PCM-0102930] | 0 | 0 | 0 | 0 | 90.5% | 90.7% | 86.4%
O=C(CCl)NC1(c2ccccc2)CCC1 [PCM-0102935] | 0 | 0 | 0.29 | 0 | 53.8% | 89.7% | 81.5%
CC(C)N(C(=O)CCl)C1CCCCC1 [PCM-0102941] | 0 | 0 | 0.17 | 0.3 | 56.3% | 26% | 85.7%
CN(CC12CC3CC(CC(C3)C1)C2)C(=O)CCl [PCM-0102942] | 0.1 | 0 | 0.26 | 0 | 2.4% | 6.7% | 7.8%
CC(C)N(C(=O)CCl)C1CCCC1 [PCM-0102948] | 0 | 0 | 0.13 | 0 | 84.3% | 102% | 88.4%
Cc1nn(C)c(C)c1NC(=O)CCl [PCM-0102949] | 0 | 0 | 0 | 0 | 99.6% | 83.8% | 93.9%
O=C(CCl)NNC(=O)c1ccc(Cl)cc1 [PCM-0102953] | 0.18 | 0 | 0 | 0 | 82.8% | 82.1% | 83%

Further lines, with some results ahead:

OTUB2 [3] | PCAF [4] | NUDT7 [5] | BSA [6] | Compound | viability at 48 h, 10 µM [1] | viability at 48 h, 10 µM [2] | viability at 48 h, 10 µM [7]
0 | 0 | 0 | 0 | CN1CCN(C(=O)CCl)CC1 [PCM-0102921] | 90.1% | 109% | 102%
0.2 | 0 | 0 | 0.13 | CC(C)(C)OC(=O)N1CCCC(CNC(=O)CCl)C1 (centres unmarked) [PCM-0102923] | 92.2% | 91% | 99.5%
0 | 0 | 0 | 0 | CC1CCCN(C(=O)C2CCN(C(=O)CCl)CC2)C1 (centres unmarked) [PCM-0102933] | 57.9% | 80.1% | 92.6%
0.13 | 0 | 0 | 0 | CCOC(=O)C1CCCCN1C(=O)CCl (centres unmarked) [PCM-0102937] | 71.9% | 89.4% | 90.3%
0 | 0 | 0 | 0 | O=C(CCl)N1CCOC2CCCCC21 (centres unmarked) [PCM-0102940] | 74% | 95.8% | 93.7%
0 | 0 | 0 | 0 | CC1CCN(C(=O)CCl)CC1 [PCM-0102945] | 88.3% | 108% | 103%
